This note sets out measurements from ChEMBL document CHEMBL2086259, “13,28-Epoxy triterpenoid saponins from Ardisia japonica selectively inhibit proliferation of liver cancer cells without affecting normal liver cells” (Bioorg Med Chem Lett, 2012).

A value given as a limit tells only on which side of the number the result lay.

In one test the test system is Bel-7402. The test is described as follows: Cytotoxicity against human Bel7402 cells after 72 hrs by MTT assay. It counts as functional, cell-based. Conditions: Bel-7402, 72 h.
Test [1] in a line: Cytotoxicity against human HL-7702 cells after 72 hrs by MTT assay. Format: cell-based. Conditions: L02, 72 h.
A further test has as its system HepG2. The test is described as follows: Cytotoxicity against human HepG2 cells after 72 hrs by MTT assay. Format: functional, cell-based. As to conditions: HepG2, 72 h.

Turning to `C[C@@H]1O[C@@H](O[C@H]2[C@H](O[C@H]3CO[C@@H](O[C@H]4CC[C@]5(C)[C@H]6CC[C@]78OC[C@@]9(CCC(C)(C)C[C@H]97)[C@H](O)C[C@@]8(C)[C@]6(C)CC[C@H]5C4(C)C)[C@H](O)[C@H]3O)O[C@H](CO)[C@@H](O)[C@@H]2O)[C@H](O)[C@H](O)[C@H]1O` [ARDISIANOSIDE C], the IC50 with Bel-7402 was 4.14 µM; in test [1], above 100 µM; in the test with HepG2 it was 13.6 µM.

As for `COC(OC)[C@@]1(C)CC[C@]23CO[C@@]4(CC[C@@H]5[C@@]6(C)CC[C@H](O[C@@H]7OC[C@H](O[C@@H]8O[C@H](CO)[C@@H](O)[C@H](O)[C@H]8O[C@@H]8O[C@@H](C)[C@H](O)[C@@H](O)[C@H]8O)[C@H](O)[C@H]7O)C(C)(C)[C@@H]6CC[C@@]5(C)[C@]4(C)C[C@H]2O)[C@@H]3C1`, the 50% inhibitory concentration (IC50) (in the test with Bel-7402; in test [1]; with HepG2) was above 100 µM in each case.

In the case of `CC1(C)CC[C@]23CO[C@@]4(CC[C@@H]5[C@@]6(C)CC[C@H](O[C@@H]7OC[C@H](O[C@@H]8O[C@H](CO)[C@@H](O)[C@H](O)[C@H]8O[C@@H]8OC[C@@H](O)[C@H](O)[C@H]8O)[C@H](O)[C@H]7O)C(C)(C)[C@@H]6CC[C@@]5(C)[C@]4(C)C[C@H]2O)[C@@H]3C1` [ARDISIANOSIDE D], the 50% inhibitory concentration (IC50) in the test on Bel-7402 is 14.8 µM; in test [1] it was above 100 µM; in the test on HepG2, 31.2 µM.

For `CC1(C)[C@@H](O[C@@H]2OC[C@H](O[C@@H]3O[C@H](CO)[C@@H](O)[C@H](O[C@@H]4O[C@H](CO)[C@@H](O)[C@H](O)[C@H]4O)[C@H]3O[C@@H]3OC[C@@H](O)[C@H](O)[C@H]3O)[C@H](O)[C@H]2O[C@@H]2O[C@H](CO)[C@@H](O)[C@H](O)[C@H]2O)CC[C@]2(C)[C@H]3CC[C@]45OC[C@@]6(CC[C@](C)(C=O)C[C@H]64)[C@H](O)C[C@@]5(C)[C@]3(C)CC[C@@H]12` [CYCLAMIN], the IC50 in the test with Bel-7402 is 3.85 µM; in test [1], above 100 µM; with HepG2, 12.2 µM.

As to `C[C@@H]1O[C@@H](O[C@H]2[C@H](O[C@H]3CO[C@@H](O[C@H]4CC[C@]5(C)[C@H]6CC[C@]78OC[C@@]9(CC[C@](C)(O)C[C@H]97)[C@H](O)C[C@@]8(C)[C@]6(C)CC[C@H]5C4(C)C)[C@H](O[C@@H]4O[C@H](CO)[C@@H](O)[C@H](O)[C@H]4O)[C@H]3O)O[C@H](CO)[C@@H](O)[C@@H]2O)[C@H](O)[C@H](O)[C@H]1O` [ARDISIANOSIDE G], the 50% inhibitory concentration (IC50) (in the test with Bel-7402; in test [1]; with HepG2) was above 100 µM throughout.

In the case of `C[C@@H]1O[C@@H](O[C@H]2[C@H](O[C@H]3CO[C@@H](O[C@H]4CC[C@]5(C)[C@H]6CC[C@]78OC[C@@]9(CC[C@](C)(C(=O)O)C[C@H]97)C(=O)C[C@@]8(C)[C@]6(C)CC[C@H]5C4(C)C)[C@H](O[C@@H]4O[C@H](CO)[C@@H](O)[C@H](O)[C@H]4O)[C@H]3O)O[C@H](CO)[C@@H](O)[C@@H]2O)[C@H](O)[C@H](O)[C@H]1O`, the 50% inhibitory concentration (IC50) (in the test on Bel-7402; in test [1]; with HepG2) was above 100 µM in each case.

In the case of `C[C@@H]1O[C@@H](O[C@H]2[C@H](O[C@H]3CO[C@@H](O[C@H]4CC[C@]5(C)[C@H]6CC[C@]78OC[C@@]9(CC[C@](C)(C=O)C[C@H]97)[C@H](O)C[C@@]8(C)[C@]6(C)CC[C@H]5C4(C)C)[C@H](O[C@@H]4O[C@H](CO)[C@@H](O)[C@H](O)[C@H]4O)[C@H]3O)O[C@H](CO)[C@@H](O)[C@@H]2O)[C@H](O)[C@H](O)[C@H]1O` [ARDISIACRISPIN B], the concentration for half-maximal inhibition (IC50) with Bel-7402 is 4.46 µM; in test [1] it was above 100 µM; in the test on HepG2, 21 µM.

In the case of `C[C@@H]1O[C@@H](O[C@H]2[C@H](O[C@H]3CO[C@@H](O[C@H]4CC[C@]5(C)[C@H]6CC[C@]78OC(=O)[C@@]9(CC[C@](C)(CO)C[C@H]97)[C@H](O)C[C@@]8(C)[C@]6(C)CC[C@H]5C4(C)C)[C@H](O[C@@H]4O[C@H](CO)[C@@H](O)[C@H](O)[C@H]4O)[C@H]3O)O[C@H](CO)[C@@H](O)[C@@H]2O)[C@H](O)[C@H](O)[C@H]1O` [ARDISIANOSIDE I], the concentration for half-maximal inhibition (IC50) (with Bel-7402; in test [1]; in the test with HepG2) was above 100 µM in each case.

Turning to `C[C@@H]1O[C@@H](O[C@H]2[C@H](O[C@H]3CO[C@@H](O[C@H]4CC[C@]5(C)[C@H]6CC=C7[C@@H]8C[C@@](C)(C(=O)O)CC[C@]8(CO)[C@H](O)C[C@@]7(C)[C@]6(C)CC[C@H]5C4(C)C)[C@H](O[C@@H]4O[C@H](CO)[C@@H](O)[C@H](O)[C@H]4O)[C@H]3O)O[C@H](CO)[C@@H](O)[C@@H]2O)[C@H](O)[C@H](O)[C@H]1O`, the IC50 (with Bel-7402; in test [1]; with HepG2) was above 100 µM each time.

For the compound `C[C@@H]1O[C@@H](O[C@H]2[C@H](O[C@H]3CO[C@@H](O[C@H]4CC[C@]5(C)[C@H]6CC[C@]78OC[C@@]9(CC[C@](C)(CO)C[C@H]97)[C@H](O)C[C@@]8(C)[C@]6(C)CC[C@H]5C4(C)C)[C@H](O[C@@H]4O[C@H](CO)[C@@H](O)[C@H](O)[C@H]4O)[C@H]3O)O[C@H](CO)[C@@H](O)[C@@H]2O)[C@H](O)[C@H](O)[C@H]1O` [ARDISICRENOSIDE A], the half-maximal inhibitory concentration (IC50) (with Bel-7402; in test [1]; in the test on HepG2) was above 100 µM throughout.

`CC1(C)[C@@H](O[C@@H]2OC[C@H](O[C@@H]3O[C@H](CO)[C@@H](O)[C@H](O)[C@H]3O[C@@H]3OC[C@@H](O)[C@H](O)[C@H]3O)[C@H](O)[C@H]2O)CC[C@]2(C)[C@H]3CC[C@]45OC[C@@]6(CC[C@](C)(C=O)C[C@H]64)[C@H](O)C[C@@]5(C)[C@]3(C)CC[C@@H]12` [PRIMULANIN]: the IC50 in the test with Bel-7402 was 4.05 µM; in test [1], above 100 µM; with HepG2, above 100 µM.

Regarding `CC1(C)CC[C@]23C(=O)O[C@@]4(CC[C@@H]5[C@@]6(C)CC[C@H](O[C@@H]7OC[C@H](O[C@@H]8O[C@H](CO)[C@@H](O)[C@H](O[C@@H]9O[C@H](CO)[C@@H](O[C@@H]%10O[C@H](CO)[C@@H](O)[C@H](O)[C@H]%10O)[C@H](O[C@@H]%10O[C@H](CO)[C@@H](O)[C@H](O)[C@H]%10O)[C@H]9O)[C@H]8O[C@@H]8OC[C@@H](O)[C@H](O)[C@H]8O)[C@H](O)[C@H]7O[C@@H]7O[C@H](CO)[C@@H](O)[C@H](O)[C@H]7O)C(C)(C)[C@@H]6CC[C@@]5(C)[C@]4(C)C[C@H]2O)[C@@H]3C1` [ARDISIANOSIDE H], the concentration for half-maximal inhibition (IC50) (in the test with Bel-7402; in test [1]; in the test on HepG2) was above 100 µM throughout.

As for `C[C@@H]1O[C@@H](O[C@H]2[C@H](O[C@H]3CO[C@@H](O[C@H]4CC[C@]5(C)[C@H]6CC[C@]78OC[C@@]9(CC[C@](C)(C=O)C[C@H]97)[C@H](O)C[C@@]8(C)[C@]6(C)CC[C@H]5C4(C)C)[C@H](O)[C@H]3O)O[C@H](CO)[C@@H](O)[C@@H]2O)[C@H](O)[C@H](O)[C@H]1O` [CYCLAMIRETIN A], the 50% inhibitory concentration (IC50) (in the test on Bel-7402; in test [1]; with HepG2) was above 100 µM throughout.
